Experimental data published in US20230250066A1, “HERBICIDAL CINNOLINE DERIVATIVES” (SYNGENTA CROP PROTECTION AG, priority 2020, published 2023).

Key:
Assay type in all cases: in vivo
Setaria faberi (SETFA) [1] = assay: Post-emergence herbicidal test; conditions: 1000 g/ha unless otherwise stated, evaluated after 13 days
Method: (§1) Seeds of a variety of test species are sown in standard soil in pots (Amaranthus retoflexus (AMARE), Solanum nigrum (SOLNI), Setaria faberi (SETFA), Lolium perenne (LOLPE), Echinochloa crus-galli (ECHCG), Ipomoea hederacea (IPOHE), Abutilon theophrasti (ABUTH), Zea mays (ZEAMX)). After 8 days cultivation under controlled conditions in a glasshouse (at 24° C./16° C., day/night; 14 hours light; 65% humidity), the plants are sprayed with an aqueous spray solution derived from the formulation of the technical active ingredient in acetone/water (50:50) solution containing 0.5% Tween 20 (polyoxyethelyene sorbitan monolaurate, CAS RN 9005-64-5). Compounds are applied at 1000 g/ha unless otherwise stated. The test plants are then grown in a glasshouse under controlled conditions in a glasshouse (at 24° C./16° C., day/night; 14 hours light; 65% humidity) and watered twice daily. After 13 days the test is evaluated for the percentage damage caused to the plant. The biological activities are shown in the following table on a five-point scale (5=81-100%; 4=61-80%; 3=41-60%; 2=21-40%; 1=10-20%; 0=0%;−=not tested).

[2] = tested on: Abutilon theophrasti (ABUTH); assay: Post-emergence herbicidal test; conditions: 1000 g/ha unless otherwise stated, evaluated after 13 days
Method: as §1

[3] = tested on: Amaranthus retoflexus (AMARE); assay: Post-emergence herbicidal test; conditions: 1000 g/ha unless otherwise stated, evaluated after 13 days
Method: as §1

Zea mays (ZEAMX) [4] = assay: Post-emergence herbicidal test; conditions: 1000 g/ha unless otherwise stated, evaluated after 13 days
Method: as §1

[5] = tested on: Echinochloa crus-galli (ECHCG); assay: Post-emergence herbicidal test; conditions: 1000 g/ha unless otherwise stated, evaluated after 13 days
Method: as §1

[6] = tested on: Ipomoea hederacea (IPOHE); assay: Post-emergence herbicidal test; conditions: 1000 g/ha unless otherwise stated, evaluated after 13 days
Method: as §1

[7] = tested on: Echinochloa crus-galli (ECHCG); assay: Pre-emergence herbicidal test; conditions: 1000 g/ha, evaluated after 13 days
[8] = tested on: Amaranthus retoflexus (AMARE); assay: Pre-emergence herbicidal test; conditions: 1000 g/ha, evaluated after 13 days
Setaria faberi (SETFA) [9] = assay: Pre-emergence herbicidal test; conditions: 1000 g/ha, evaluated after 13 days
[10] = tested on: Abutilon theophrasti (ABUTH); assay: Pre-emergence herbicidal test; conditions: 1000 g/ha, evaluated after 13 days
Zea mays (ZEAMX) [11] = assay: Pre-emergence herbicidal test; conditions: 1000 g/ha, evaluated after 13 days
[12] = tested on: Ipomoea hederacea (IPOHE); assay: Pre-emergence herbicidal test; conditions: 1000 g/ha, evaluated after 13 days

SMILES	percentage damage caused to the plant, SETFA (five-point scale) (Setaria faberi (SETFA) [1])	percentage damage caused to the plant, ABUTH (five-point scale) [2]	percentage damage caused to the plant, AMARE (five-point scale) [3]	percentage damage caused to the plant, ZEAMX (five-point scale) (Zea mays (ZEAMX) [4])	percentage damage caused to the plant, ECHCG (five-point scale) [5]	percentage damage caused to the plant, IPOHE (five-point scale) [6]	percentage damage caused to the plant, five-point scale, ECHCG [7]	percentage damage caused to the plant, five-point scale, AMARE [8]	percentage damage caused to the plant, five-point scale, SETFA (Setaria faberi (SETFA) [9])	percentage damage caused to the plant, five-point scale, ABUTH [10]	percentage damage caused to the plant, five-point scale, ZEAMX (Zea mays (ZEAMX) [11])	percentage damage caused to the plant, five-point scale, IPOHE [12]
CC(C)CCSC(=O)c1nn(-c2ccc(OC(F)(F)F)cc2)c2cccc(S(C)(=O)=O)c2c1=O [Compound P91, S-isopentyl 5-methylsulfonyl-4-oxo-1-[4-(trifluoromethoxy)phenyl]cinnoline-3-carbothioate]	4 (4=61-80%)	1 (1=10-20%)	0 (0=0%)	1 (1=10-20%)	3 (3=41-60%)	1 (1=10-20%)	3 (3=41-60%)	0 (0=0%)	4 (4=61-80%)	0 (0=0%)	0 (0=0%)	0 (0=0%)
CC(C)CCOC(=O)c1nn(-c2ccc(OC(F)(F)F)cc2)c2cccc(S(C)(=O)=O)c2c1=O [Compound P88, isopentyl 5-methylsulfonyl-4-oxo-1-[4-(trifluoromethoxy)phenyl]cinnoline-3-carboxylate]	4 (4=61-80%)	1 (1=10-20%)	0 (0=0%)	0 (0=0%)	3 (3=41-60%)	0 (0=0%)	4 (4=61-80%)	0 (0=0%)	5 (5=81-100%)	0 (0=0%)	0 (0=0%)	0 (0=0%)
C#CCCOC(=O)c1nn(-c2ccc(OC(F)(F)F)cc2)c2cccc(S(C)(=O)=O)c2c1=O [Compound P71, but-3-ynyl 5-methylsulfonyl-4-oxo-1-[4-(trifluoromethoxy)phenyl]cinnoline-3-carboxylate]	3 (3=41-60%)	0 (0=0%)	0 (0=0%)	1 (1=10-20%)	3 (3=41-60%)	1 (1=10-20%)	4 (4=61-80%)	0 (0=0%)	5 (5=81-100%)	0 (0=0%)	0 (0=0%)	0 (0=0%)
CS(=O)(=O)c1cccc2c1c(=O)c(C(=O)OCCC#N)nn2-c1ccc(OC(F)(F)F)cc1 [Compound P73, 2-cyanoethyl 5-methylsulfonyl-4-oxo-1-[4-(trifluoromethoxy)phenyl]cinnoline-3-carboxylate]	4 (4=61-80%)	0 (0=0%)	0 (0=0%)	1 (1=10-20%)	3 (3=41-60%)	1 (1=10-20%)	3 (3=41-60%)	0 (0=0%)	5 (5=81-100%)	0 (0=0%)	0 (0=0%)	0 (0=0%)
CCSc1cccc2c1c(=O)c(C(=O)O)nn2-c1ccc(OC(F)(F)F)cc1 [Compound P26, 5-ethylsulfanyl-4-oxo-1-[4-(trifluoromethoxy)phenyl]cinnoline-3-carboxylic acid]	1 (1=10-20%)	1 (1=10-20%)	0 (0=0%)	1 (1=10-20%)	1 (1=10-20%)	0 (0=0%)	0 (0=0%)	1 (1=10-20%)	0 (0=0%)	0 (0=0%)	0 (0=0%)	0 (0=0%)
CS(=O)(=O)c1cccc2c1c(=O)c(C(=O)OCCCl)nn2-c1ccc(OC(F)(F)F)cc1 [Compound P61, 2-chloroethyl 5-methylsulfonyl-4-oxo-1-[4-(trifluoromethoxy)phenyl]cinnoline-3-carboxylate]	4 (4=61-80%)	2 (2=21-40%)	0 (0=0%)	0 (0=0%)	3 (3=41-60%)	0 (0=0%)	4 (4=61-80%)	0 (0=0%)	5 (5=81-100%)	0 (0=0%)	1 (1=10-20%)	0 (0=0%)
O=C(O)c1nn(-c2ccc(OC(F)(F)F)cc2)c2cccc(SC3CC3)c2c1=O [Compound P30, 5-cyclopropylsulfanyl-4-oxo-1-[4-(trifluoromethoxy)phenyl]cinnoline-3-carboxylic acid]	1 (1=10-20%)	1 (1=10-20%)	1 (1=10-20%)	1 (1=10-20%)	1 (1=10-20%)	1 (1=10-20%)	0 (0=0%)	0 (0=0%)	0 (0=0%)	0 (0=0%)	0 (0=0%)	0 (0=0%)
